These results are taken from patent US10842772B1, “Cannabis-based bioactive formulations and methods for use thereof” (priority 2016, dated 2020).

Data set [1] has as its system Patient 1 (anxiety, depression, OCD, substance abuse, ADHD). The data set is described as follows: Example 1: treatment of Patient 1 with Zoloft. The data set is classed as in vivo, human. The protocol: Patient 1 was also a regular user of alcohol and a recreational user of cocaine. Patient 1 was prescribed selective serotonin reuptake inhibitor (SSRI) Zoloft, at 25 mg with doses increasing up to 200 mg over the course of approximately 6-8 months. The dose of Zoloft/sertraline used was 25-200 mg.

For data set [2] the following is noted: cited from earlier work.
The test system of the next data set is CB1 and CB2 receptors. The settings on record: cited from earlier work.
The target of another data set is CB2 receptor (Homo sapiens, UniProt P34972). The conditions noted are these: cited from earlier work.
In data set [3] the test system is patients experiencing ADHD-related symptoms or ASD-related symptoms. The data set is described as follows: Example 3: group study, THC versus placebo. The format is in vivo, human. The conditions noted are these: THC or Marinol versus placebo; re-evaluation after 2-3 weeks adjustment. The protocol:
In patients experiencing ADHD-related symptoms or ASD-related symptoms, obtain baseline measures (using, reports, observations or tests described above) of the symptoms and deficits commonly associated with the conditions. Administer THC, or a synthetic substitute such as Marinol® at a specific dose, to half of the group and administer a placebo to the remainder of the participants. The group that is administered THC should be allowed at least 2-3 weeks to acclimate to THC. After the several week adjustment period, all patients should be re-evaluated using the same or similar tests, observations and reports upon which initial measures of symptoms and deficits were made.

Data set [4] relates to Patient 1 (anxiety, depression, OCD, ADHD-related symptoms). The data set is described as follows: Example 2: treatment of Patient 1 with THC (vaporized, then edible). The data set is classed as in vivo, human. The protocol: Following cessation of efficacy of Zoloft, Patient 1 obtained a prescription for medical marijuana. Patient 1 began by vaporizing marijuana buds and later vaporizing THC wax and oil concentrates.
Patient 1 began consuming THC in edible form at doses ranging from 10-35 mg every 4-6 hours. Initially, Patient 1 consumed 10-20 mg for approximately 1-2 months, and then increased the dose to 30-35 mg. […] Patient 1 used orally consumed THC as a medicament for at least 9 months during which time they observed and recorded the changes in their mood, movements, cognition and behavior while practicing law working, raising children, and otherwise functioning in their daily life. […] Patient 1 continued to use the SSRI Zoloft during approximately the first 2 months of this 9-month period, but thereafter discontinued the use of Zoloft.
Patient 1 reports that symptom relief seems tied to THC's slowing of their perception of time, which results in cascading (positive) effects on their mood, movements, cognition and behavior.

The next data set concerns the target T1, 5-HT1A receptor (Homo sapiens, UniProt P08908).
T1 sequence (P08908 1-422): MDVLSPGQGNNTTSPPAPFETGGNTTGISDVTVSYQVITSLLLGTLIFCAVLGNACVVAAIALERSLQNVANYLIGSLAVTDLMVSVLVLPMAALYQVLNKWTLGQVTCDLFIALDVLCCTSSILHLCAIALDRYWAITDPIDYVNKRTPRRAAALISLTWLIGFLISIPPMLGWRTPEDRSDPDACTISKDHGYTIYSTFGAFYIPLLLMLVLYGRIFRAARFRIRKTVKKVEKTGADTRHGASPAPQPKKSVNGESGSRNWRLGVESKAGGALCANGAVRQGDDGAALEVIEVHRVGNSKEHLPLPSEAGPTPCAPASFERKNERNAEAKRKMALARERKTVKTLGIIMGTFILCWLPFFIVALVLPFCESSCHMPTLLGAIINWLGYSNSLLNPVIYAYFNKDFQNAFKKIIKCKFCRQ
The conditions noted are these: cited from earlier work.

The next data set deals with GPR55 (Homo sapiens, UniProt Q9Y2T6). The conditions noted are these: putative new cannabinoid receptor; cited from earlier work.
The mark [5] stands for this setting: THC in edible form 10-35 mg every 4-6 hours.

Where a name gives a salt, the structure may show the parent alone.

Chain of CB2 receptor (P34972 whole entry): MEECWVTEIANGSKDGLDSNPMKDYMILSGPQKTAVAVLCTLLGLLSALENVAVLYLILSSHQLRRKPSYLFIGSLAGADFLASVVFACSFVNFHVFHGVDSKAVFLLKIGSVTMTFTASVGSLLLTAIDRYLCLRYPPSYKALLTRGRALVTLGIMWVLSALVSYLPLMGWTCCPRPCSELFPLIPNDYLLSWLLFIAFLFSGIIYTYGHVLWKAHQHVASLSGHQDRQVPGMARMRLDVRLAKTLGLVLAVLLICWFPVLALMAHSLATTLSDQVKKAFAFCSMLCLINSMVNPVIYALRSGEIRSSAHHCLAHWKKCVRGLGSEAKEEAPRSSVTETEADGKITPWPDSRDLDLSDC
Chain of GPR55 (Q9Y2T6 whole entry, species assumed): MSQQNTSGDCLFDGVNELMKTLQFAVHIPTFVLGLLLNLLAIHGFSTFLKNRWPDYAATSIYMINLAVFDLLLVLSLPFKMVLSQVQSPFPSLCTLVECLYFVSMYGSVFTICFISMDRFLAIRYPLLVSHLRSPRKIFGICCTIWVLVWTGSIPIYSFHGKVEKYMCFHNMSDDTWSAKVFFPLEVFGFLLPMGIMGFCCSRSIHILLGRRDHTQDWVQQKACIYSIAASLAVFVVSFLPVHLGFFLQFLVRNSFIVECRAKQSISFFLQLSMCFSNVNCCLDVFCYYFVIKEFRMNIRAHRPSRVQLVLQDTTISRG

For `CN[C@H]1CC[C@@H](c2ccc(Cl)c(Cl)c2)c2ccccc21` [Zoloft, sertraline HCl], the “treating anxiety, depression, OCD, substance abuse and ADHD” value in data set [1] (25 mg increasing up to 200 mg over 6-8 months, at initial dose and each incremental increase) was “initially effective”. Further, the persistence of effects result in data set [1] (25-200 mg, after dosage increases) is recorded as “effects wore off at varying intervals”.
`CCCCCc1cc(O)c2c(c1)OC(C)(C)[C@@H]1CCC(C)=C[C@@H]21` [THC, (−)-(6aR,10aR)-6,6,9-trimethyl-3-pentyl-6a,7,8,10a-tetrahydro-6H-benzo[c] chromen-1-ol]: in data set [2] (Absorption), the peak plasma time is 0.5 to 4 h. Further, the protein bound in data set [2] (Distribution) is recorded as 90-99%. In data set [2] (Elimination), the “excretion: feces” value is on record as 50%; the “excretion: urine” value was 15%; the “half-life, parent drug” value is 25 to 36 h; the renal clearance was 18 to 20 mL/min. The total body clearance in data set [2] (Elimination) was 3.3 mL/min/kg. Besides, in data set [2] (in vivo), the Metabolism result was “extensive first-pass hepatic metabolism”. Moreover, in the data set with CB1 and CB2 receptors, the “relative affinity for CB1 versus CB2 receptor” value is recorded as “approximately equal affinity”. Also, the “activity at CB2 receptor” value at CB2 receptor was “partial agonist”. The “symptoms and deficits associated with ASD and ADHD” value in data set [3] is “reduce or eliminate”. In data set [4] (setting [5]), the “OCD and ADHD-related symptoms” value was “elimination”; the “ability to focus and concentrate on reading, writing, and interpersonal interactions” value is “increased ability to focus and concentrate”; the “anxiety, depression” value is “significant reduction”; the perception of time result is “slowed perception of time”. Further, the side effects result in data set [4] (edible THC, after initial adjustment period of approximately 2 weeks) is on record as “No significant side effects”. For the same compound, in data set [4] (orally-consumed THC), the “ability to read body language and facial expressions” value is “increase in their ability to read body language and facial expressions”; the “alcohol and cocaine use” value is “rarely consumed alcohol and stopped using cocaine”; the “coordination and balance, fine motor skills” value is “improvements in coordination and balance”; the “interpersonal relationships at home and in the workplace” value is “improvement in interpersonal relationships”. In data set [4] (orally-consumed THC), the “propensity to interrupt while orally communicating” value is on record as “reduced propensity to interrupt”; the “sensitivity to peripheral noise and other distractions” value is recorded as “reduction in sensitivity”; the “visualizing images described in writings, sense of direction” value was “increased ability to visualize images described in writings and an improved sense of direction”.
With `C=C(C)[C@@H]1CCC(C)=C[C@H]1c1c(O)cc(CCCCC)cc1O` [CBD, cannabidiol], in the data set with CB1 and CB2 receptors, the “affinity for CB1 and CB2 receptors” value is on record as “little affinity”; the “relative affinity for CB1 versus CB2 receptor” value is on record as “greater affinity for the CB2 receptor”. Besides, the “activity at 5-HT1A receptor” value on 5-HT1A receptor was “agonist”. Besides, the “activity at GPR55” value on GPR55 is on record as “antagonist”.
